Values after ≈ are worked out from the molar mass of the structure shown. *1 amine or outer side, *2 acyl side, *3 side chain or, on linkers, in order; H or OH if unused. Where a SMILES comes first, the peptide text is derived from it. [ ]: non-standard residue; d: D form. The star is where a group is joined. ξ: configuration not given here. Sta = CC(C)C[C@H](N)[C@@H](O)CC(=O)O; X1 = CC(C)CC(N[*:1])C(O)CC(=O)[*:2]; ξPhg = NC(C(=O)O)c1ccccc1; Boc = CC(C)(C)OC(=O)*; NHBn = c1ccc(CN*)cc1
Experiments:
physchem [1] = conditions: S
[2] = Partition coefficient (logD) (octanol/citric acid-phosphate buffer)
physchem [3] = conditions: phosphate buffer, pH 7.4, S
Description: Solubility (phosphate buffer, pH 7.4)

Renin = molecular target: T1, Renin (Homo sapiens, UniProt P00797); assay: Concentration required for 50% inhibition of human plasma renin; format: cell-free
T1 sequence (P00797 whole entry): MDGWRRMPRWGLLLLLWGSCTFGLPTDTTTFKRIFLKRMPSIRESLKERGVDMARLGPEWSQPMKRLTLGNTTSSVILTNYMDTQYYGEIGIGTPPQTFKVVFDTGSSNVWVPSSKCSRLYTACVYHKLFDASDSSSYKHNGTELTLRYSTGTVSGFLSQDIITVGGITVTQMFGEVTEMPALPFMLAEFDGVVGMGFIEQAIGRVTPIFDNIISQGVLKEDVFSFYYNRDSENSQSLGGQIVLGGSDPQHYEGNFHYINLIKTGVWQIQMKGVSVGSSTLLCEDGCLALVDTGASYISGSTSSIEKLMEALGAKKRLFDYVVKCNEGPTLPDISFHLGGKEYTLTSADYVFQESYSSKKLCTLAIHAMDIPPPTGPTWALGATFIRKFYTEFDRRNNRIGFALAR

Sus scrofa [4] = organism: Sus scrofa; assay: Concentration required for 50% inhibition of porcine kidney renin; format: functional
Sus scrofa [5] = organism: Sus scrofa; assay: Concentration required for 50% inhibition of porcine kidney renin at 10e-7 nM concentration
[6] = system: Renin (Canis lupus familiaris); assay: Concentration required for 50% inhibition of renin at 10e-6 nM concentration
Sus scrofa [7] = organism: Sus scrofa; assay: Concentration required for 50% inhibition of porcine kidney renin at 10e-6 (nM) concentration
[8] = system: Renin (Canis lupus familiaris); assay: Concentration required for 50% inhibition of renin; 10e-6 (nM)
Sus scrofa [9] = organism: Sus scrofa; assay: Concentration required for 50% inhibition of porcine kidney renin at 10e-7 (nM) concentration
Renin (Sus scrofa) = assay: Inhibition of porcine kidney renin
[10] = system: Renin (Canis lupus familiaris); assay: Concentration required for 50% inhibition of renin at 10e-6 M of the compound
Renin (Homo sapiens) = molecular target: T2, Renin (Homo sapiens) (UniProt P00797); assay: Concentration required for 50% inhibition of human plasma renin at 10e-6 nM of the compound; format: cell-free
T2 sequence (whole entry): T1 sequence (P00797 whole entry)

[11] = molecular target: Renin (Canis lupus familiaris); assay: Inhibition of renin
Sus scrofa [12] = organism: Sus scrofa; assay: Concentration required for 50% inhibition of porcine kidney renin at 10e-7 nM of the compound
[13] = buffer, pH 7.4
Description: Solubility (phosphate buffer, pH 7.4)

SMILES	solubility (physchem [1]) [µM]	logD [2]	solubility (physchem [3]) [µM]	other results
CC(C)C[C@H](NC(=O)CC(O)C(CC1CCCCC1)NC(=O)[C@H](Cc1c[nH]cn1)NC(=O)[C@H](Cc1ccccc1)NC(=O)OC(C)(C)C)C(=O)NCc1cccc(CN=C(N)N)c1 (some centres not stated)	> 250	> 2	40 (≈ 34.9 µg/mL)	–
CC(C)C[C@H](NC(=O)C[C@H](O)[C@H](CC(C)C)NC(=O)[C@H](Cc1c[nH]cn1)NC(=O)[C@H](Cc1ccccc1)NC(=O)OC(C)(C)C)C(=O)NCc1ccccc1 (Boc-FH[Sta]L-NHBn)	< 10	> 2	< 10	–
CC(C)CC(NC(=O)[C@H](Cc1c[nH]cn1)NC(=O)[C@H](Cc1ccccc1)NC(=O)OC(C)(C)C)C(O)CC(=O)N[C@@H](CC(C)C)C(=O)NCC(N)c1ccccn1 (some centres not stated)	890 (≈ 705 µg/mL)	> 2	400 (≈ 317 µg/mL)	–
CC(C)CC(NC(=O)[C@H](Cc1cnc[nH]1)NC(=O)[C@H](Cc1ccccc1)NC(=O)OC(C)(C)C)C(O)CC(=O)N[C@@H](CC(C)C)C(=O)NCCCN(CCO)CCO (some centres not stated)	960 (≈ 784 µg/mL)	1.4	4300 (≈ 3510 µg/mL)	IC50 (Renin): 170 nM; IC50 (Sus scrofa [4]): 900 nM
CC(C)CC(NC(=O)[C@H](Cc1c[nH]cn1)NC(=O)[C@H](Cc1ccccc1)NC(=O)OC(C)(C)C)C(O)CC(=O)N[C@@H](CC(C)C)C(=O)NC(Cc1cccc(CN)c1)C(=O)O (some centres not stated)	390 (≈ 331 µg/mL)	1.83	1500 (≈ 1270 µg/mL)	IC50 (Renin): 880 nM; inhibition (Sus scrofa [5]): 0%; inhibition [6]: 18%
CC(C)CC(NC(=O)[C@H](Cc1c[nH]cn1)NC(=O)[C@H](Cc1ccccc1)NC(=O)OC(C)(C)C)C(O)CC(=O)N[C@@H](CC(C)C)C(=O)NCCN (some centres not stated)	–	–	–	inhibition (Sus scrofa [7]): 31%; inhibition [8]: 32%
CC(C)CC(NC(=O)[C@H](Cc1c[nH]cn1)NC(=O)[C@H](Cc1ccccc1)NC(=O)OC(C)(C)C)C(O)CC(=O)N[C@@H](CC(C)C)C(=O)NCc1cc[n+]([O-])cc1 (some centres not stated)	–	–	–	inhibition (Sus scrofa [9]): 29%
CC(C)C[C@H](NC(=O)C[C@H](O)[C@H](CC(C)C)NC(=O)[C@H](Cc1c[nH]cn1)NC(=O)[C@H](Cc1ccccc1)NC(=O)OC(C)(C)C)C(=O)N[C@@H](Cc1ccccc1)C(N)=O (Boc-FH[Sta]LF-NH2)	< 20	> 2	< 20	–
CC(C)CC(NC(=O)[C@H](Cc1c[nH]cn1)NC(=O)[C@H](Cc1ccccc1)NC(=O)OC(C)(C)C)C(O)CC(=O)N[C@@H](CC(C)C)C(=O)NCCN=C(N)N (some centres not stated)	24000 (≈ 18200 µg/mL)	0.322	11000 (≈ 8330 µg/mL)	IC50 (Renin (Sus scrofa)): 710 nM; inhibition [10]: 32%; IC50 (Renin): 64 nM
CC(C)CC(NC(=O)[C@H](Cc1c[nH]cn1)NC(=O)[C@H](Cc1ccccc1)NC(=O)OC(C)(C)C)C(O)CC(=O)N[C@@H](CC(C)C)C(=O)NCCC(N)C(=O)O (stereo in doubt; 17) [listing 1 of 2 here]	–	–	–	inhibition (Renin (Homo sapiens)): 8%; inhibition (Sus scrofa [7]): 0%; inhibition [8]: 22%
CC(C)CC(NC(=O)[C@H](Cc1c[nH]cn1)NC(=O)[C@H](Cc1ccccc1)NC(=O)OC(C)(C)C)C(O)CC(=O)N[C@@H](CC(C)C)C(=O)N1CCN(Cc2ccccc2)CC1 (some centres not stated)	< 10	> 2	< 10	IC50 (Renin (Sus scrofa)): 280 nM; IC50 [11]: 310 nM; IC50 (Renin): 127 nM
CC(C)CC(NC(=O)[C@H](Cc1cnc[nH]1)NC(=O)[C@H](Cc1ccccc1)NC(=O)OC(C)(C)C)C(O)CC(=O)N[C@@H](CC(C)C)C(=O)NCc1cccc(CN)c1 (some centres not stated)	880 (≈ 696 µg/mL)	1.89	1400 (≈ 1110 µg/mL)	IC50 (Renin (Sus scrofa)): 54 nM; IC50 [11]: 110 nM; IC50 (Renin): 9 nM
CC(C)CC(NC(=O)[C@H](Cc1c[nH]cn1)NC(=O)[C@H](Cc1ccccc1)NC(=O)OC(C)(C)C)C(O)CC(=O)N[C@@H](CC(C)C)C(=O)NC(C(=O)O)c1ccccc1 (some centres not stated) (Boc-FH[X1]L[ξPhg]-OH)	740 (≈ 596 µg/mL)	1.22	2200 (≈ 1770 µg/mL)	inhibition (Renin (Homo sapiens)): 44%; inhibition (Sus scrofa [12]): 0%; inhibition [10]: 45%
CC(C)C[C@H](NC(=O)CC(O)C(CC1CCCCC1)NC(=O)[C@H](Cc1cnc[nH]1)NC(=O)[C@H](Cc1ccccc1)NC(=O)OC(C)(C)C)C(=O)NCc1cccc(OCC(=O)O)c1 (some centres not stated)	30 (≈ 26.3 µg/mL)	> 2	210 (≈ 184 µg/mL)	–
CC(C)C[C@H](NC(=O)CC(O)C(CC1CCCCC1)NC(=O)[C@H](Cc1cnc[nH]1)NC(=O)[C@H](Cc1ccccc1)NC(=O)OC(C)(C)C)C(=O)NCc1ccncc1 (some centres not stated)	–	> 2	< 10	–
CC(C)CC(NC(=O)[C@H](Cc1c[nH]cn1)NC(=O)[C@H](Cc1ccccc1)NC(=O)OC(C)(C)C)C(O)CC(=O)N[C@@H](CC(C)C)C(=O)NCc1ccccn1 (some centres not stated)	380 (≈ 290 µg/mL)	> 2	180 (≈ 137 µg/mL)	–
CC(C)CC(NC(=O)[C@H](Cc1c[nH]cn1)NC(=O)[C@H](Cc1ccccc1)NC(=O)OC(C)(C)C)C(O)CC(=O)N[C@@H](CC(C)C)C(=O)NCc1ccncc1 (some centres not stated)	440 (≈ 336 µg/mL)	> 2	340 (≈ 259 µg/mL)	–
CC(C)CC(NC(=O)[C@H](Cc1c[nH]cn1)NC(=O)[C@H](Cc1ccccc1)NC(=O)OC(C)(C)C)C(O)CC(=O)N[C@@H](CC(C)C)C(=O)NCCC(N)C(=O)O (stereo in doubt; 16)	–	–	–	inhibition (Renin (Homo sapiens)): 25%; inhibition (Sus scrofa [12]): 0%; inhibition [10]: 15%
CC(C)CC(NC(=O)[C@H](Cc1cnc[nH]1)NC(=O)[C@H](Cc1ccccc1)NC(=O)OC(C)(C)C)C(O)CC(=O)N[C@@H](CC(C)C)C(=O)NCCN (some centres not stated)	2600 (≈ 1860 µg/mL)	0.949	4900 (≈ 3500 µg/mL)	IC50 (Renin): 140 nM
CC(C)CC(NC(=O)[C@H](Cc1cnc[nH]1)NC(=O)[C@H](Cc1ccccc1)NC(=O)OC(C)(C)C)C(O)CC(=O)N[C@@H](CC(C)C)C(=O)NCc1cccc(CN=C(N)N)c1 (some centres not stated)	3000 (≈ 2500 µg/mL)	1.03	930 (≈ 775 µg/mL)	–
CC(C)CC(NC(=O)[C@H](Cc1cnc[nH]1)NC(=O)[C@H](Cc1ccccc1)NC(=O)OC(C)(C)C)C(O)CC(=O)N[C@@H](CC(C)C)C(=O)NCc1cc[n+]([O-])cc1 (some centres not stated)	6500 (≈ 5060 µg/mL)	–	4200 (≈ 3270 µg/mL)	–
CC(C)CC(NC(=O)[C@H](Cc1cnc[nH]1)NC(=O)[C@H](Cc1ccccc1)NC(=O)OC(C)(C)C)C(O)CC(=O)N[C@@H](CC(C)C)C(=O)NCc1cccc(OCC(=O)O)c1 (some centres not stated)	270 (≈ 226 µg/mL)	> 2	1800 (≈ 1500 µg/mL)	–
CC(C)CC(NC(=O)[C@H](Cc1c[nH]cn1)NC(=O)[C@H](Cc1ccccc1)NC(=O)OC(C)(C)C)C(O)CC(=O)N[C@@H](CC(C)C)C(=O)NCCC(N)C(=O)O (stereo in doubt; 17) [listing 2 of 2 here]	3400 (≈ 2630 µg/mL)	1.03	–	S [13]: 1400 µM
